Results reported in US20220340582A1, “CANNABINOID DERIVATIVES” (CANOPY GROWTH CORPORATION, priority 2019, published 2022).
Where two headings read alike, the source gives them in different places.

Experiments:
human CB1 receptor = biological target: T1, human CB1 receptor (Homo sapiens, UniProt P21554); test: CB1 radioligand competitive binding assay ([3H]CP 55,940 displacement)
T1 construct: host or cells: CHO-K1

human CB2 receptor = biological target: T2, human CB2 receptor (Homo sapiens, UniProt P34972); test: CB2 radioligand competitive binding assay ([3H]CP 55,940 displacement); details: for Selectivity CB2: fold difference between CB1 and CB2 binding, printed in the column of the receptor with the higher binding affinity
T2 construct: host or cells: CHO-K1
T2 sequence (P34972 whole entry): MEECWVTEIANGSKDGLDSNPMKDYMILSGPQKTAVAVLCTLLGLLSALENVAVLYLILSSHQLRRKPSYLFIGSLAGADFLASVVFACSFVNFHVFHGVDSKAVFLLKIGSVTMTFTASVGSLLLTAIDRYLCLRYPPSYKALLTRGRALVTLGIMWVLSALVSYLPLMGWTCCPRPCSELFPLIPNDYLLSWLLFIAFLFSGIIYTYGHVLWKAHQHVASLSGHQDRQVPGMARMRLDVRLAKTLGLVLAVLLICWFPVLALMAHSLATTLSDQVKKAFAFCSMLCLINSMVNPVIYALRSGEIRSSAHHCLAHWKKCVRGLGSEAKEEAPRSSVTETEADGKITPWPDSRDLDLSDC
Method: Compounds of the present disclosure were tested for CB1 receptor binding affinity and for CB2 receptor binding affinity. As used herein, “binding affinity” is represented by the IC50 value, which was experimentally determined as described herein. The lower the IC50 value the higher the binding affinity.
The membranes were prepared from CHO-K1 (Chinese hamster ovary) cells stably transfected with the human CB2 receptor (Cat. #ES-111-C; Perkin Elmer, Boston, Mass.). The cells were grown adherently and maintained in Ham's F12 medium containing 10% fetal bovine serum (FBS), penicillin, streptomycin and geneticin (G418) at 37° C. in a humid atmosphere of 5% CO2 following the manufacturer's instructions.
For membrane preparation the cells were washed with PBS and scraped off the plates in cold homogenization buffer (25 mM HEPES (pH 7.4), 2 mM EDTA) containing protease inhibitor cocktail (Sigma Cat. #P8340). The cell suspension was homogenized with a Pro-PK-01200D Polytron Homogenizer (Pro Scientific) and then centrifuged for 30 min at 120,000×g. The supernatant was discarded and the pellet was re-suspended in the homogenization buffer and stored at −80° C. until the time of use.
In this experiment, 3H radiolabeled CP 55,940, i.e. [3H]CP 55,940 (Perkin Elmer, Boston, Mass.), was used as a radioligand for the CB2 receptor to determine the binding affinity of compounds for the CB2 receptor (Scheme 4; above).
The competition binding experiments (single dose and dose-response) were performed by incubating 0.6 nM of [3H]CP55,940 (specific activity 101 Ci/mmol, Perkin Elmer) and different concentrations of compounds disclosed herein with membranes prepared as above from CHO-K1 cells expressing human CB2 receptor (1 μg of protein/well), 50 mM Tris-HCl (pH 7.4), 5 mM MgCl2, 1 mM CaCl2, and 2 mg/mL BSA.
For the dose-response experiments the test compounds were sequentially diluted to provide the desired concentration range for the IC50 determination. In each case the compounds were pre-incubated with the membrane for 20 min, before adding the radioligand.
After incubation with the radioligand for 60 min at 37° C., the incubation was terminated by rapid filtration of assay mixture through MultiScreen®HTS^+96-well filter plates (Millipore, Cat. #MSFCNXB), pre-soaked for 60 min with 50 mM Tris-HCl (pH 7.4) containing 0.33% polyethylenimine (PEI). The nonspecific binding (NSB) was determined in the presence of 10 μM unlabelled CP55,940. After drying the filter plate at 50° C. for at least 60 min, the filter-bound radioactivity was determined by scintillation spectrometry using the 1450 MicroBeta Plate Counter (Perkin Elmer, Boston, MA).

[1] = 0.8 nM [3H]CP 55,940, CHO-K1 membranes expressing human CB1 receptor, dose-response, read-out: CB1 IC50
[2] = 0.6 nM [3H]CP55,940, CHO-K1 membranes expressing human CB2 receptor, dose-response, read-out: CB2 IC50

T1 sequence (P21554 whole entry): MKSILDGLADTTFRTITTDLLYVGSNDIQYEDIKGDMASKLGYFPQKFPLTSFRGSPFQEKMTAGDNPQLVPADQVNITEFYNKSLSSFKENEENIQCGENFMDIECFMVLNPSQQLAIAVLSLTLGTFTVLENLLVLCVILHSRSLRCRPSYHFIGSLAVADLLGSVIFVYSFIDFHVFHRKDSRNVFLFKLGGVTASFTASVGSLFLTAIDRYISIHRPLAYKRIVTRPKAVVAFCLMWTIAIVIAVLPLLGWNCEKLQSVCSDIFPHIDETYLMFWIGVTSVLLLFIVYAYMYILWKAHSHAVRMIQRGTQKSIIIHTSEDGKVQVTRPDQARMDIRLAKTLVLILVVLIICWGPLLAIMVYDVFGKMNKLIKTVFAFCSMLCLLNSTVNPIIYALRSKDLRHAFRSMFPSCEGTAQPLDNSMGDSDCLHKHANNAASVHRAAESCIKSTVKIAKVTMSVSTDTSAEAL

| SMILES | IC50 (human CB1 receptor) | IC50 (human CB2 receptor) | Selectivity CB2 (human CB2 receptor) | IC50 (human CB1 receptor; [1]) | IC50 (human CB2 receptor; [2]) | Selectivity CB1 (human CB1 receptor; fold difference between CB1 and CB2 binding, printed in the column of the receptor with the higher binding affinity) |
| --- | --- | --- | --- | --- | --- | --- |
| CCCCCc1cc2c(c(O)c1C(=O)NCC)[C@@H]1C=C(C)CC[C@H]1C(C)(C)O2 [Compound 3b, N-ethyl-1-hydroxy-6,6,9-trimethyl-3-pentyl-6a,7,8,10a-tetrahydro-6H-benzo[c]chromene-2-carboxamide] | 500 to 990 nM | 100 to 490 nM | 3.33 fold |  |  |  |
| CCCCCc1cc2c(c(O)c1C(=O)NC1CC1)[C@@H]1C=C(C)CC[C@H]1C(C)(C)O2 [Compound 6b, N-cyclopropyl-1-hydroxy-6,6,9-trimethyl-3-pentyl-6a,7,8,10a-tetrahydro-6H-benzo[c]chromene-2-carboxamide] | 100 to 490 nM | < 100 nM | 9.08 fold |  |  |  |
| CCCCCc1cc2c(c(O)c1C(=O)Nc1ccccc1)[C@@H]1C=C(C)CC[C@H]1C(C)(C)O2 [Compound 10b, 1-hydroxy-6,6,9-trimethyl-3-pentyl-N-phenyl-6a,7,8,10a-tetrahydro-6H-benzo[c]chromene-2-carboxamide] |  |  | 8.81 fold | < 100 nM | < 100 nM |  |
| CCCCCc1cc2c(c(O)c1C(=O)NCc1cccnc1)[C@@H]1C=C(C)CC[C@H]1C(C)(C)O2 [Compound 15b, 1-hydroxy-6,6,9-trimethyl-3-pentyl-N-(pyridin-3-ylmethyl)-6a,7,8,10a-tetrahydro-6H-benzo[c]chromene-2-carboxamide] |  |  | 19.07 fold | > 1000 nM | < 100 nM |  |
| CCCCCc1cc2c(c(O)c1C(=O)N1CCN(C(C)=O)CC1)[C@@H]1C=C(C)CC[C@H]1C(C)(C)O2 [Compound 36b, 1-(4-(1-hydroxy-6,6,9-trimethyl-3-pentyl-6a,7,8,10a-tetrahydro-6H-benzo[c]chromene-2-carbonyl)piperazin-1-yl)ethan-1-one] | > 1000 nM | > 1000 nM |  |  |  | 1.10 fold |
| CCCCCc1cc2c(c(O)c1C(=O)N1CCOCC1)[C@@H]1C=C(C)CC[C@H]1C(C)(C)O2 [Compound 39b, (1-hydroxy-6,6,9-trimethyl-3-pentyl-6a,7,8,10a-tetrahydro-6H-benzo[c]chromen-2-yl)(morpholino)methanone] | 100 to 490 nM | 100 to 490 nM | 1.53 fold |  |  |  |
| CCCCCc1cc2c(c(O)c1C(=O)N1CCCC1)[C@@H]1C=C(C)CC[C@H]1C(C)(C)O2 [Compound 41b, (1-hydroxy-6,6,9-trimethyl-3-pentyl-6a,7,8,10a-tetrahydro-6H-benzo[c]chromen-2-yl)(pyrrolidin-1-yl)methanone] | 100 to 490 nM | 100 to 490 nM | 2.06 fold |  |  |  |
| CCCCCc1cc2c(c(O)c1C(=O)N1Cc3ccccc3C1)[C@@H]1C=C(C)CC[C@H]1C(C)(C)O2 [Compound 43b, (1-hydroxy-6,6,9-trimethyl-3-pentyl-6a,7,8,10a-tetrahydro-6H-benzo[c]chromen-2-yl)(isoindolin-2-yl)methanone] | > 1000 nM | 100 to 490 nM | 8.33 fold |  |  |  |
| CCCCCc1cc2c(c(O)c1C(=O)N(CC)CC)[C@@H]1C=C(C)CC[C@H]1C(C)(C)O2 [Compound 50b, N,N-diethyl-1-hydroxy-6,6,9-trimethyl-3-pentyl-6a,7,8,10a-tetrahydro-6H-benzo[c]chromene-2-carboxamide] | 100 to 490 nM | < 100 nM | 4.38 fold |  |  |  |
| CCCc1cc2c(c(O)c1C(=O)NC)[C@@H]1C=C(C)CC[C@H]1C(C)(C)O2 [Compound 58b, 1-hydroxy-N,6,6,9-tetramethyl-3-propyl-6a,7,8,10a-tetrahydro-6H-benzo[c]chromene-2-carboxamide] | > 1000 nM | > 1000 nM | 6.87 fold |  |  |  |
